Test results taken from patent publication US11925645B2, “Enhanced caffeinated beverage composition” (Ortho-Nutra, LLC, priority 2013, dated 2024).
Read-outs that look alike come from different tables or passages of the source.

Key:
[1] = 7-day open-label repeated dose study of TC (N=6): VAS subjective measures; format: in vivo, human; conditions: 200 mg dose of theacrine over 7 days
Procedure: A subset of 6 subjects underwent a separate 7-day, open-label, repeated dose study comparing 100 mg, 200 mg and 400 mg of TC. The experiment was a randomized, placebo-controlled, double-blind, within-subject crossover clinical trial (for N=15 study). A further subset study was open-label, sub-acute (7-day), repetitive dosing trial (for N=6 subset). Six (6) subjects provided written and dated informed consent to participate in the 7-day repetitive dosing study between Dec. 15, 2012 and Feb. 21, 2013. A separate cohort of fifteen (15) subjects provided written and dated informed consent for the acute dose, placebo-controlled, crossover clinical trial. All subjects were in good health as determined by physical examination and medical history, between the ages of 18 and 45 (inclusive). […] Subjects were willing and able to comply with the experimental and supplement protocol. Physical activity levels and health history were determined using standardized questionnaires. Heart rate and blood pressure were measured using an Omron HEM-780. Standing height was determined using a wall-mounted stadiometer. […] Medical Scale. A 100 mm anchored VAS questionnaire for energy, fatigue, and concentration was distributed at each acute lab session; additional VAS questionnaires were distributed for the daily assessment over a 6-hour period during the 7-day subset study. Quest Diagnostics (Pittsburgh, Pa.) was utilized to transport and analyze all blood samples.

[2] = Theacrine-caffeine interaction study: single oral dose plasma pharmacokinetics (LC-MS/MS, noncompartmental); format: in vivo, human; conditions: for Vd/F: read-out: Vd/F; for MRT: read-out: MRT; for half-life: read-out: t1/2 (converted)
From the text: Theacrine pharmacokinetics in humans has not been systematically characterized. Therefore, one purpose of this study, among others, was to determine theacrine pharmacokinetics and dose-linearity following oral administration in humans.
Eight healthy nonsmokers, including 4 men and 4 women, were recruited for the experiment.
Study Design and Procedures. […] Theacrine, administered as iTeaCrine.®, was provided by Compound Solutions (Carlsbad, Calif). […] Treatment sequence was randomized using a 4×4 Latin square. There was an approximate 1-week washout period between treatments for all subjects.
Test Visit Procedures. […] A catheter was inserted into the forearm vein for blood sampling. Duplicate measurements of resting heart rate and blood pressure were taken pre-dose and prior to each timed blood sample. In addition, respiratory rate was counted in one minute and body temperature was measured using an ear scanning thermometer (dual readings taken at each time).
All subjects were instructed to consume their usual diet throughout the study period, with the exception of the actual days of testing. During the two days prior to each test day, subjects recorded all food and drink consumed and attempted to mimic this intake for the two-day period prior to subsequent visits. Diet records were analyzed using nutrient analysis software (Food Processor SQL, version 9.9; ESHA Research, Salem, Oreg.). For the actual test days, standardized meals (meal replacement food bars [Clif “Builder's 20 g Protein Bar”] and ready-to-drink shakes [Orgain Organic Nutrition™]) were provided to the subjects after sample collection at hour 2 and hour 6 (one shake and one-half bar at each time). Subjects were also provided with adequate meal replacement bars and shakes to consume following the 8 hour sample collection. (during their time outside the lab). Each bar contained 280 calories, 10 grams of fat, 29 grams of carbohydrate, and 20 grams of protein. Each shake contained 250 calories, 7 grams of fat, 32 grams of carbohydrate, and 16 grams of protein. No food other than what was provided to the subjects was allowed during each study day, including both time spent in the lab and outside the lab. […] The subjects returned the following morning for the 24 hour blood collection, again in a 10 hour fasted state. The same volume of meal replacement bars or shakes was consumed by each subject during each visit (both in lab and outside lab).
Pharmacokinetic Study. Plasma concentration-time data were evaluated using noncompartmental methods in Phoenix WinNonlin (version 7.0; Pharsight Corporation, Mountain View, Calif) with adjustment for lag time after oral administration. The maximum concentration (Cmax), lag time (talag), and time of maximum concentration (tmax) were determined from the plasma concentration versus time data. The area under the plasma concentration-time curve from time 0 to infinity (was calculated using the trapezoidal rule extrapolated to time infinity). […] The oral clearance (CL/F) was calculated by dividing the oral dose by AUC0-∞. The apparent volume of distribution during the terminal elimination phase (Vz/F) was calculated by dividing CL/F by k. […]

A1 and A2A AR = conditions: rats; cited from earlier work
[3] = both sexes, human, plasma, po, 125 mg
[4] = theacrine 125 mg + caffeine 150 mg versus theacrine 125 mg
[5] = theacrine with caffeine co-administration versus theacrine alone

Vd/F ([2]; both sexes, human, plasma, oral, theacrine, Condition 4: Theacrine 125 mg + Caffeine 150 mg, mean ± SD): 35.4 L
dose-adjusted Cmax ([2]; both sexes, human, plasma, po, 25 mg, Cmax, theacrine in plasma, Condition 1: Theacrine 25 mg single oral dose, dose-adjusted, mean ± SD): 34.1 ± 38.9 ng/mL/mg
Vd/F ([2]; both sexes, human, plasma, po, 25 mg, theacrine, Condition 1: Theacrine 25 mg single oral dose, mean ± SD): 48.1 ± 23.4 L
Tmax [2, 3]: 1.8 h
dose-adjusted Cmax ([2]; both sexes, human, plasma, po, 125 mg, Cmax, theacrine in plasma, Condition 2: Theacrine 125 mg single oral dose, dose-adjusted, mean ± SD): 25.6 ± 5.5 ng/mL/mg
Vd/F ([2]; both sexes, human, plasma, po, 125 mg, theacrine, Condition 2: Theacrine 125 mg single oral dose, mean ± SD): 50.5 ± 0.49 L
MRT [2, 3]: 36.8 ± 18.9 h
half-life [2, 3]: 26.1 ± 13.7 h
dose-adjusted Cmax ([2]; both sexes, human, plasma, po, Cmax, theacrine in plasma, Condition 4: Theacrine 125 mg + Caffeine 150 mg single oral dose, dose-adjusted, mean ± SD): 38.6 ± 16.6 ng/mL/mg
MRT ([2]; both sexes, human, plasma, theacrine, Condition 1: Theacrine 25 mg single oral dose, mean ± SD): 24.9 ± 3.5 h
half-life ([2]; both sexes, human, theacrine in plasma, Condition 1: Theacrine 25 mg single oral dose, mean ± SD): 16.5 ± 2.4 h
Tmax ([2]; both sexes, human, theacrine in plasma, Condition 1: Theacrine 25 mg single oral dose, median (range)): 1.8 h
time to reach maximal concentration ([2]; oral administration of theacrine alone): ≤ 2 h
decrease of theacrine oral clearance (CL/F) by caffeine [2, 4]: approximately 30%
decrease of theacrine oral volume of distribution (Vd/F) by caffeine [2, 4]: approximately 30%
theacrine absorption rate (Tmax) and half-life (t1/2) under caffeine co-administration ([2]; theacrine 125 mg + caffeine 150 mg versus theacrine alone): unaffected
absorption following oral administration ([2]; theacrine alone): well absorbed
dose-adjusted theacrine pharmacokinetic parameters, 25 mg versus 125 mg ([2]; theacrine alone): not significantly different
AUC ([2]; theacrine in plasma, Condition 1: Theacrine 25 mg single oral dose, dose-adjusted, mean ± SD): 809 ± 923 ng·h/mL/mg
AUC ([2]; theacrine in plasma, Condition 2: Theacrine 125 mg single oral dose, dose-adjusted, mean ± SD): 736 ± 312 ng·h/mL/mg
dose-adjusted Cmax ([2]; theacrine in plasma, Condition 4: Theacrine 125 mg + Caffeine 150 mg single oral dose, dose-adjusted, mean ± SD): 37.7 ± 16.5 ng/mL/mg
AUC ([2]; theacrine in plasma, Condition 4: Theacrine 125 mg + Caffeine 150 mg, dose-adjusted, mean ± SD): 1,242 ± 1,129 hr * ng/mL/mg
geometric mean ratio of AUC [2, 5]: 1.1 ±0.03
geometric mean ratio of Cmax [2, 5]: 1.1 ±0.06
CL/F ([2]; theacrine, Condition 1: Theacrine 25 mg single oral dose, mean ± SD): 2.0 ± 0.9 L/h
CL/F ([2]; theacrine, Condition 2: Theacrine 125 mg single oral dose, mean ± SD): 1.6 ± 0.5 L/h
CL/F ([2]; theacrine, Condition 2: Theacrine 125 mg single oral dose, mean ± SD, listed as theacrine): 1.6 ± 0.49 L/h
CL/F ([2]; theacrine, Condition 4: Theacrine 125 mg + Caffeine 150 mg, mean ± SD): 1.2 ± 0.6 L/h
CL/F ([2]; theacrine, Condition 4: Theacrine 125 mg + Caffeine 150 mg, mean ± SD, listed as theacrine): 1.2 L/h
AUC ([2]; theacrine, theacrine 125 mg alone): 740 ± 310 ng·h/mL/mg
AUC ([2]; theacrine, with caffeine co-administration (theacrine 125 mg + caffeine 150 mg)): 1200 ± 1100 ng·h/mL/mg
Compound: Cn1c(=O)c2c(n(C)c1=O)n(C)c(=O)n2C [Theacrine, 1,3,7,9-tetramethylpurine-2,6,8-trione]
anxiety (FIG. 6) [1]: decreased substantially
concentration (FIG. 7) [1]: increased substantially
energy (FIG. 7) [1]: increased substantially
fatigue (FIG. 6) [1]: decreased substantially
libido (FIG. 6) [1]: increased substantially
motivation to exercise (FIG. 7) [1]: increased substantially
theacrine stimulating activity under a cocktail containing both A1 and A2A AR antagonists (A1 and A2A AR): blocks
